This data set deals with target transcript mRNA in A549 cells. The data set is described as follows: Level of mRNA of target transcript in A549 cells by quantitative RT-PCR (Tables 12 and 13). Type of data set: cell-based, human. The following applies: 24 h post-transfection; for mRNA knockdown of energy and metabolism gene target transcript, 10 nM: 10 nM siRNA. As to the method: A549 cells were transfected as described before with 0.1, 1.0 and 10 nM siRNA as listed in Tables 10 and 11 and the relative mRNA levels quantified 24 h post-transfection. RNA was purified from cells using Trizol® extraction as per the manufacturer's protocol (Invitrogen). cDNA was prepared by digesting approximately 200 ng purified RNA with DNAse I (Invitrogen) for 15 minutes at room temperature, followed by 15 minutes at 65° C. in the presence of 25 mM EDTA. 30 ng random primers were added and incubated for 10 minutes at 65° C., 1 minute on ice; Superscript® III polymerase (Invitrogen) was added in presence of 5 nM DTT (Invitrogen) and 1 mM deoxyribonucleotides (Invitrogen), and the reaction incubated at 25° C. for 5 minutes, followed by an hour at 50° C. cDNA was diluted 1:3 in 10 mM Tris pH 7.0, and quantitative RT-PCR carried out on an ABI Prism 7900HT (Applied Biosciences, Inc., Foster City, Calif.) using FastStart TaqMan SYBRGreen (Roche, Basel, Switzerland) or Platinum SYBR Green (Invitrogen) and 360 nM of the primers specific for gene targets and housekeeping genes HPRT and Lamin. Reduction in target mRNA levels following siRNA transfection are given in Tables 12 and 13, together with the gene specific primer sequences. Primer sequences used for the housekeeping genes HPRT and Lamin are given in SEQ ID NO: 4885-4888.

Turning to “1686 (AACAGGATCTTCGGCCCCATCTG; chemistry not given here) [compound 1686]”, the “mRNA knockdown of energy and metabolism gene target transcript, 0.1 nM” value (0.1 nM siRNA) was “− (<50% mRNA knockdown)”. In addition, under “1 nM siRNA”, the “mRNA knockdown of energy and metabolism gene target transcript, 1 nM” value is reported as “− (<50% mRNA knockdown)”.
Consider “3580 (AGTGAAGCGGTTTTTCTCCAAGTACTC; chemistry not given here) [compound 3580]”, for which, for the setting “0.1 nM siRNA”, the “mRNA knockdown of energy and metabolism gene target transcript, 0.1 nM” value is listed as “++ (70-90% mRNA knockdown)”. Besides, where the note is “1 nM siRNA”, the “mRNA knockdown of energy and metabolism gene target transcript, 1 nM” value is listed as “++ (70-90% mRNA knockdown)”.
Take “SEQ ID NO: 4915: siRNA targeting SLC19A2 (ThTr1) (chain 1 ATGACATTCAGGCTGAACAGCGACC; chain 2 AUGACAUUCAGGCUGAACAGCGACC; chemistry not given here; one strand in two spellings)”: the “mRNA knockdown of transporter gene target transcript, 0.1 nM” value (0.1 nM siRNA) is given as “++ (70-90% mRNA knockdown)”. Further, the “mRNA knockdown of transporter gene target transcript, 1 nM” value (1 nM siRNA) is reported as “++ (70-90% mRNA knockdown)”.
For “3596 (AACAGGAAGATCCTGCTCATCAG; chemistry not given here) [compound 3596]”, where the note is “0.1 nM siRNA”, the “mRNA knockdown of energy and metabolism gene target transcript, 0.1 nM” value was “+ (50-70% mRNA knockdown)”. In addition, the “mRNA knockdown of energy and metabolism gene target transcript, 1 nM” value (1 nM siRNA) was “++ (70-90% mRNA knockdown)”.
For “3548 (GCAACTACCGCGAGCTGCGCTGGTT; chemistry not given here) [compound 3548]”, the “mRNA knockdown of energy and metabolism gene target transcript, 10 nM” value is reported as “+++ (>90% mRNA knockdown)”. Also, the “mRNA knockdown of energy and metabolism gene target transcript, 0.1 nM” value (0.1 nM siRNA) was “++ (70-90% mRNA knockdown)”. In addition, the “mRNA knockdown of energy and metabolism gene target transcript, 1 nM” value (1 nM siRNA) is on record as “++ (70-90% mRNA knockdown)”.
“3552 (GAAGGCAACTACCGCGAGCTGCGCTGGTT; chemistry not given here) [compound 3552]”: the “mRNA knockdown of energy and metabolism gene target transcript, 0.1 nM” value (0.1 nM siRNA) is “+ (50-70% mRNA knockdown)”. The “mRNA knockdown of energy and metabolism gene target transcript, 1 nM” value (1 nM siRNA) is recorded as “++ (70-90% mRNA knockdown)”.
The matching figures for “3585 (AACAGAGGAGCAAGATACAGGC; chemistry not given here) [compound 3585]”: “++ (70-90% mRNA knockdown)” and “++ (70-90% mRNA knockdown)”.
With “3540 (AGCCAAGGGTAGGAGCCCTACACTAGG; chemistry not given here) [compound 3540]”, the “mRNA knockdown of energy and metabolism gene target transcript, 10 nM” value is given as “− (<50% mRNA knockdown)”. The “mRNA knockdown of energy and metabolism gene target transcript, 0.1 nM” value (0.1 nM siRNA) was “− (<50% mRNA knockdown)”. Further, the “mRNA knockdown of energy and metabolism gene target transcript, 1 nM” value (1 nM siRNA) was “− (<50% mRNA knockdown)”.
In the case of “1687 (CAACAGGATCTTCGGCCCCATCTG; chemistry not given here) [compound 1687]”, under “0.1 nM siRNA”, the “mRNA knockdown of energy and metabolism gene target transcript, 0.1 nM” value was “− (<50% mRNA knockdown)”. Besides, the “mRNA knockdown of energy and metabolism gene target transcript, 1 nM” value (1 nM siRNA) was “− (<50% mRNA knockdown)”.
With “3560 (CGGCTACGGATGTTGGGATCATTATTA; chemistry not given here) [compound 3560]”, the “mRNA knockdown of energy and metabolism gene target transcript, 0.1 nM” value (0.1 nM siRNA) is recorded as “++ (70-90% mRNA knockdown)”. Moreover, the “mRNA knockdown of energy and metabolism gene target transcript, 1 nM” value (1 nM siRNA) is “++ (70-90% mRNA knockdown)”.
Regarding “1689 (GCCAACAGGATCTTCGGCCCCATCTG; chemistry not given here) [compound 1689]”, the “mRNA knockdown of energy and metabolism gene target transcript, 0.1 nM” value (0.1 nM siRNA) is “− (<50% mRNA knockdown)”. The “mRNA knockdown of energy and metabolism gene target transcript, 1 nM” value (1 nM siRNA) is listed as “++ (70-90% mRNA knockdown)”.
The matching figures for “3574 (GCGGTTTTTCTCCAAGTACTC; chemistry not given here) [compound 3574]”: “++ (70-90% mRNA knockdown)” and “+++ (>90% mRNA knockdown)”.
As for “3554 (CGGATGTTGGGATCATTATTA; chemistry not given here) [compound 3554]”, for the setting “0.1 nM siRNA”, the “mRNA knockdown of energy and metabolism gene target transcript, 0.1 nM” value was “++ (70-90% mRNA knockdown)”. Besides, the “mRNA knockdown of energy and metabolism gene target transcript, 1 nM” value (1 nM siRNA) is given as “++ (70-90% mRNA knockdown)”.

These data come from US20080145313A1, “Compositions and Methods for the Treatment and Prevention of Neoplastic Disorders” (Genesis Research & Development Corporation Limited, priority 2006, published 2008).
